US20100016228A1, “TRUNCATED BARD1 PROTEIN, AND ITS DIAGNOSTIC AND THERAPEUTIC USES” (Ayanda Biosystems SA, priority 2000, published 2010)
Where two headings read alike, the source gives them in different places. Non-standard residues stand in square brackets, D forms with d. Residues, ends and D or L forms follow the SMILES beside them. Nle = CCCC[C@H](N)C(=O)O

Tests used:
[1] = tested on: human BARD1 protein (SEQ ID NO:1); assay: in vitro cleavage of 35S-labeled human BARD1 by NaB-treated SW48 cell extracts, inhibition by protease inhibitors; assay type: biochemical
Procedure: (§1) The human BARD1 protein (SEQ ID NO:1), labeled with ^35S-methionine, was transcribed and translated in vitro using the TNT coupled reticulocytes lysate system kit (Promega). 1 μg of plasmid was used in a reaction medium for the transcription and the translation, containing 4 μl of ^35S-methionine (NEN). For the in vitro cleavage, 2 μl of transcription/translation products were incubated with apoptotic or nonapoptotic cell extracts prepared in a DIV buffer (20 mM HEPES. PH 7.5, 10 mM NaCl, 1.5 mM MgCl2, 0.1% SB14, 0.5 mM PMSF) at 37° C. for the period of time indicated. […] Inhibition of the cleavage was evaluated by adding caspase inhibitors or a proteasome inhibitor (lactacystine) (Calbiochem) or the calpain inhibitor I (ALLnL) (Chemicon).
To define the proteolytic activity responsible for the cleavage of hBARD1 (SEQ ID NO:1), various preparations of cell extracts from SW48 cells treated with NAB were tested. It appears that both the nuclear preparations and the mitochondrial preparations were capable of cleaving hBARD1 (SEQ ID NO:1). The supernatant at 13,000×g of the organelle preparation had no effect.

[2] = tested on: SW48 cells; assay: NaB treatment of SW48 cells: induction of BARD1 and calpastatin cleavage; assay type: cell-based, human; details: SW48 cells treated with NaB
Procedure: Apoptosis was induced by treatment with sodium butyrate (NaB). The cells at different stages of confluence were treated in complete medium at 37° C. and with 5 mM of NaB (Sigma) for various periods of time. The apoptotic bodies were purified as previously described (Gautier et al., 1999):
as §1
The SW48 cells were arrested in G0 by contact inhibition in 175 cm^2 flasks. After confluencing for 3 days, the cells were split 1:10 in 75 cm^2 flasks at a concentration of 3×10^6 cells per flask. 12, 20, 28, 36 and 44 hours after seeding, the cells were treated with 5 mM of NaB for 24 hours and collected. To determine the cell cycle distribution at each time, the content of each flask was subjected to trypsinization, washed three times in 10 ml of ice-cold PBS, and fixed with 1 ml of ice-cold 70% ethanol, added dropwise, for 16 hours at −20° C. The fixed cells were pelletted, resuspended in 500 μl of PC buffer (96% 0.2M Na2HPO4, 4% 15 0.1M citric acid, pH 7.8) and left at ambient temperature for 30 minutes. They were then washed and resuspended in 500 μl of propidium iodide in a staining solution (PBS, 0.12% Triton X-100, 0.12 mM EDTA, 100 μg/ml RNase A), incubated for 30 minutes at 37° C. and analyzed on a FACScan (flow cytometer) (Beckton Dickinson). […]

[3] = tested on: caspases 3, 6 and 8; assay: caspase activity in extracts of NaB-treated SW48 cells (fluorogenic substrates); assay type: cell-based, human; details: during NaB treatment of SW48 cells; caspase 3 most active after 6 and 12 hours
Procedure: For assaying the caspase activity, 10 μg of cell extracts were diluted in 5 μl of DIV buffer:
Acetyl-Asp-Glu-Val-Asp-7-amino-4-methylcoumarin (Ac-DEVD-AMC), acetyl-Val-Glu-Ile-Asp-7-amino-4-methylcoumarin (Ac-VEID-AMC) and […] (Bachem), substrates for caspases 3, 6 and 8, respectively, were added at a final concentration of 50 μM. The cleavage activity was controlled on Fluorolite 1000 (Dynatech laboratories).

[4] = tested on: PROb tumors; assay: vaccination of BDIX rats, then subcutaneous PROb tumor challenge; assay type: in vivo; details: three weekly intraplantar injections of 100 μg in complete Freund's adjuvant; PROb cells s.c. two weeks after final immunization; versus control protein (fucosyl transferase)
Procedure: Two groups of BDIX rats were given three weekly intraplantar injections of 100 μg of F1 fragment (amino acids 460-611) of BARD1 (SEQ ID NO:9) or of a controlled protein (fucosyl transferase) purified under the same conditions as the F1 fragment. The proteins were emulsified in 100 μl of complete Freund's adjuvant. Two weeks after the final immunization, the rat colon tumor cells (PROb, 50×10^3/rat) were injected subcutaneously and the volume of the PROb tumors was estimated.

benzyloxycarbonyl-Asp-Glu-Val-Asp-fluoromethylketone [Z-DEVD-frnk]
inhibition of the hydrolysis of hBARD1 [1]: no effect

O=C(O)CN(CCOCCOCCN(CC(=O)O)CC(=O)O)CC(=O)O [EGTA]
inhibition of the hydrolysis of hBARD1 [1]: inhibited
inhibition of the hydrolysis of hBARD1 ([1]; dose-dependent manner): strongly inhibited

benzyloxycarbonyl-Val-Ala-Asp-fluoromethylketone [ZVAD-fmk]
inhibition of the hydrolysis of hBARD1 ([1]; high concentration (100 μM)): slightly inhibited

CC(=O)N[C@@H](CSC(=O)[C@]1([C@@H](O)C(C)C)NC(=O)[C@H](C)[C@@H]1O)C(=O)O [lactacystine]
blocking of the proteolysis of hBARD1 ([1]; even at concentrations of 100 μm): does not block

benzyloxycarbonyl-Val-Glu-Ile-Asp-fluoromethyl ketone [Z-VEID-fmk]
inhibition of the hydrolysis of hBARD1 [1]: no effect

CCCC[C@@H](C=O)NC(=O)[C@H](CC(C)C)NC(=O)[C@H](CC(C)C)NC(C)=O [ALLnL, N-acetyl-leu-leu-norleucinal] (Ac-Leu-Leu-[Nle]-aldehyde)
inhibition of the hydrolysis of hBARD1 [1]: inhibited
inhibition of the hydrolysis of hBARD1 ([1]; dose-dependent manner): strongly inhibited

CCCC(=O)[O-].[Na+] [NaB, sodium butyrate]
treatment time after which BARD1 cleavage was virtually complete [2]: ~12 h
treatment time after which calpastatin was completely cleaved [2]: 12 h
treatment time after which the p67 protein appeared [2]: 4 h
activities of caspases 3, 6 and 8 [3]: gradually increased

B1: BARD1 fragment: F1 fragment (amino acids 460-611) of rat BARD1 with N-terminal 6xHis tag, expressed in E. coli (protein, listed as Rattus norvegicus)
chain: SHGHLKIVELLLQHNALVNTTGYHNDSPLHDAAKNGHIDIVKVLLSHGASRNAVNIFGERPVDYTDAENIRSLLLLPEKTDSFSTSQCSVQVNTGQRKSGPLVLIGSGLSSQQQKLLSKLETVLKAKKCAEFDNTVTHVIVPDEEAQSTLKC
modifications: N-terminal 6xHis tag
notes: F1 fragment (amino acids 460-611) of rat BARD1 with N-terminal 6xHis tag, expressed in E. coli
PROb tumor growth (tumor volume) [4]: slowing down of tumor growth
